Reference: patent US9266883B2, “Ring-fused bicyclic pyridyl derivatives as FGFR4 inhibitors” (Novartis AG, priority 2013, dated 2016)
Structures can show the parent of a compound that is named as a salt. Where two headings read alike, the source gives them in different places.

How the values were obtained:
[1] = biological target: FGFR4 (GST-FGFR4(388-802)) (Homo sapiens (Human), UniProt P22455); experiment: In-vitro biochemical kinase assay for FGFR4 (Caliper microfluidic mobility shift)
Tel-FGFR4 = Tel-FGFR4 (Homo sapiens (Human), UniProt P22455); experiment: In vitro cellular kinase assay for FGFR4 (BaF3-Tel-FGFR4 cells, MSD capture ELISA of tyrosine phosphorylation); assay type: cell-based
[2] = biochemical FGFR4 assay, read-out: Biochemical IC50
[3] = Cellular BaF3 FGFR4 assay, read-out: Cellular IC50
[4] = read-out: Biochemical FGFR4 IC50
[5] = BaF3-Tel-FGFR4 cells, 1 hour incubation, read-out: Cellular BaF3 FGFR4 IC50

Sequence of Tel-FGFR4 (P22455 other isoform, or with tags, fused parts or gaps): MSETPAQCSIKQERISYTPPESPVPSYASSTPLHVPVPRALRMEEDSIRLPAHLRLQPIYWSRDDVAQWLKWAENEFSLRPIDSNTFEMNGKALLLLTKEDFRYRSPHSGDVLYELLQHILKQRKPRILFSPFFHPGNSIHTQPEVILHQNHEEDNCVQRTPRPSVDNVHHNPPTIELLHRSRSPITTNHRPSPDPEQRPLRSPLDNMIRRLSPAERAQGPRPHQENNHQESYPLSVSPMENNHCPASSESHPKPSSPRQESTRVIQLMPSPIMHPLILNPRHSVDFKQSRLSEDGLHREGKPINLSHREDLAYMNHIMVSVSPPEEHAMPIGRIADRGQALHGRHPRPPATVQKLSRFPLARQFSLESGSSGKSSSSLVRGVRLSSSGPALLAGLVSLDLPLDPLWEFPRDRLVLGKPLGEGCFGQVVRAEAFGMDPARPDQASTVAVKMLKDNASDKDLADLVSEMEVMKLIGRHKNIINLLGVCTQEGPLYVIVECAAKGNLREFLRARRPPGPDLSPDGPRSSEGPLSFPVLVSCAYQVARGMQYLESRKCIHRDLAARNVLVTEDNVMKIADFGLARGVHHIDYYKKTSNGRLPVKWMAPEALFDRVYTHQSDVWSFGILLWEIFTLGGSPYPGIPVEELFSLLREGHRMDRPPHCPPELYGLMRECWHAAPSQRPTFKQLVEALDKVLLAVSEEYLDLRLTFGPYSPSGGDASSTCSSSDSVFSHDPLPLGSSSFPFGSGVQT
Sequence of FGFR4 (GST-FGFR4(388-802)) (P22455 388-802): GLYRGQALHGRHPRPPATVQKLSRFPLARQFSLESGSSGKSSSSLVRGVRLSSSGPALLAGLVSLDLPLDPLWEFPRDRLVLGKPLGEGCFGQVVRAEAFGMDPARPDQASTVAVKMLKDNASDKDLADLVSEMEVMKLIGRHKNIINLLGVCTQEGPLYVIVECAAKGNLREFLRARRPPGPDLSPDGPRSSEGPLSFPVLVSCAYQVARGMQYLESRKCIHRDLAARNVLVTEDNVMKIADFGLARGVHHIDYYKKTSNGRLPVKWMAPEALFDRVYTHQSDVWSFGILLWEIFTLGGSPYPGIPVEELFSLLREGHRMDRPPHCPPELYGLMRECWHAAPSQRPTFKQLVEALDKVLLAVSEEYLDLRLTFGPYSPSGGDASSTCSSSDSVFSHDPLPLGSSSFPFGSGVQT

IC50 [1, 2] [nM]	IC50 (Tel-FGFR4; [3]) [nM]	SMILES	IC50 [1, 4] [nM]	IC50 (Tel-FGFR4; [5]) [nM]
0.5	5.5	CCN(Cc1cc2c(nc1C=O)N(C(=O)Nc1cc(NCCOC)c(C#N)cn1)CCC2)C(=O)CN(C)C [N-(5-cyano-4-((2-methoxyethyl)amino)pyridin-2-yl)-6-((2-(dimethylamino)-N-ethylacetamido)methyl)-7-formyl-3,4-dihydro-1,8-naphthyridine-1(2H)-carboxamide]	–	–
–	–	CN1CCN(Cc2cc3c(nc2C=O)N(C(=O)Nc2cc(OCCO)c(C#N)cn2)CCC3)C(=O)C1 [Example 199, N-(5-cyano-4-(2-hydroxyethoxyl)pyridin-2-yl)-7-formyl-6-((4-methyl-2-oxopiperazin-1-yl)methyl)-3,4-dihydro-1,8-naphthyridine-1(2H)-carboxamide]	2.3	19.3
4.8	13.5	N#Cc1cnc(NC(=O)N2CCCc3cc(CN4CC[C@H](O)C4=O)c(C=O)nc32)cc1OCC(F)F [(S)N-(5-cyano-4-(2,2-difluoroethoxyl)pyridin-2-yl)-7-formyl-6-((3-hydroxy-2-oxopyrrolidin-1-yl)methyl)-3,4-dihydro-1,8-naphthyridine-1(2H)-carboxamide]	–	–
0.2	6.1	COCCNc1cc(NC(=O)N2CCCc3cc(CN(C)C(=O)CN(C)C)c(C=O)nc32)ncc1C#N [N-(5-cyano-4-((2-methoxyethyl)amino)pyridin-2-yl)-6-((2-(dimethylamino)-N-methylacetamido)methyl)-7-formyl-3,4-dihydro-1,8-naphthyridine-1(2H)-carboxamide]	–	–
–	–	N#Cc1cnc(NC(=O)N2CCCc3cc(CO)c(C=O)nc32)cc1OCC1CCCO1 (racemic) [Example 43, N-(5-cyano-4-((tetrahydrofuran-2-yl)methoxy)pyridin-2-yl)-7-formyl-6-(hydroxymethyl)-3,4-dihydro-1,8-naphthyridine-1(2H)-carboxamide]	5.2	7.5
26.4	854	CC(C)Oc1cc(NC(=O)N2CCCc3cc(CN4CCCC4)c(C=O)nc32)ncc1C#N [N-(5-cyano-4-isopropoxypyridin-2-yl)-7-formyl-6-(pyrrolidin-1-ylmethyl)-3,4-dihydro-1,8-naphthyridine-1(2H)-carboxamide]	–	–
–	–	COCCNc1cc(NC(=O)N2CCCc3cc(-c4cn(C)nc4C)c(C=O)nc32)ncc1C#N [Example 250, N-(5-cyano-4-((2-methoxyethyl)amino)pyridin-2-yl)-6-(1,3-dimethyl-1H-pyrazol-4-yl)-7-formyl-3,4-dihydro-1,8-naphthyridine-1(2H)-carboxamide]	6.7	14.5
4.8	10.2	COc1cc(NC(=O)N2CCCc3cc(CN4CCN(C)CC4=O)c(C=O)nc32)ncc1C#N [N-(5-cyano-4-methoxypyridin-2-yl)-7-formyl-6-((4-methyl-2-oxopiperazin-1-yl)methyl)-3,4-dihydro-1,8-naphthyridine-1(2H)-carboxamide]	–	–
–	–	O=Cc1ccc2c(n1)N(C(=O)Nc1cc(Cl)c(Cl)cn1)CCC2 [Example 2, N-(4,5-dichloropyridin-2-yl)-7-formyl-3,4-dihydro-1,8-naphthyridine-1(2H)-carboxamide]	30	> 3000
0.9	4.8	CN1CCN(Cc2cc3c(nc2C=O)N(C(=O)Nc2cc(NCC(C)(C)O)c(C#N)cn2)CCC3)C(=O)C1 [N-(5-cyano-4-((2-hydroxy-2-methylpropyl)amino)pyridin-2-yl)-7-formyl-6-((4-methyl-2-oxopiperazin-1-yl)methyl)-3,4-dihydro-1,8-naphthyridine-1(2H)-carboxamide]	–	–
–	–	COC[C@@H](C)Oc1nc(NC(=O)N2CCCc3cc(CO)c(C=O)nc32)ncc1Cl [Example 59, (R)-N-(5-chloro-4-((1-methoxypropan-2-yl)oxy)pyrimidin-2-yl)-7-formyl-6-(hydroxymethyl)-3,4-dihydro-1,8-naphthyridine-1(2H)-carboxamide]	48	105
1.8	51.3	COCCNc1cc(NC(=O)N2CCC(O)c3cc(CN4CCN(C)CC4=O)c(C=O)nc32)ncc1C#N (centres unmarked) [N-(5-cyano-4-((2-methoxyethyl)amino)pyridin-2-yl)-7-formyl-4-hydroxy-6-((4-methyl-2-oxopiperazin-1-yl)methyl)-3,4-dihydro-1,8-naphthyridine-1(2H)-carboxamide]	–	–
2.2	10.8	CO[C@@H](C)COc1cc(NC(=O)N2CCCc3cc(CN4CCN(C)CC4=O)c(C=O)nc32)ncc1C#N [(S)-N-(5-cyano-4-(2-methoxypropoxyl)pyridin-2-yl)-7-formyl-6-((4-methyl-2-oxopiperazin-1-yl)methyl)-3,4-dihydro-1,8-naphthyridine-1(2H)-carboxamide]	–	–
21	168	CC(C)Oc1cc(NC(=O)N2c3nc(C=O)c(Br)cc3CC[C@H]2C)ncc1C#N [(R)-6-bromo-N-(5-cyano-4-isopropoxypyridin-2-yl)-7-formyl-2-methyl-3,4-dihydro-1,8-naphthyridine-1(2H)-carboxamide]	–	–
0.6	11.5	CC(C)Nc1cc(NC(=O)N2CCCc3cc(CN(C)C(=O)CN(C)C)c(C=O)nc32)ncc1C#N [N-(5-cyano-4-(isopropylamino)pyridin-2-yl)-6-((2-(dimethylamino)-N-methylacetamido)methyl)-7-formyl-3,4-dihydro-1,8-naphthyridine-1(2H)-carboxamide]	–	–
2.8	9.1	CC(C)Oc1cc(NC(=O)N2CCCc3cc(CO)c(C=O)nc32)ncc1C#N [N-(5-cyano-4-isopropoxypyridin-2-yl)-7-formyl-6-(hydroxymethyl)-3,4-dihydro-1,8-naphthyridine-1(2H)-carboxamide]	–	–
–	–	O=Cc1nc2c(cc1CO)CCCN2C(=O)Nc1cc(O[C@H]2CCOC2)c(Cl)cn1 [Example 72, (S)-N-(5-chloro-4-((tetrahydrofuran-3-yl)oxy)pyridin-2-yl)-7-formyl-6-(hydroxymethyl)-3,4-dihydro-1,8-naphthyridine-1(2H)-carboxamide]	21	57.5
3.1	14.5	COCCNc1cc(NC(=O)N2CCCc3cc(-c4ccncc4)c(C=O)nc32)ncc1C#N [N-(5-cyano-4-((2-methoxyethyl)amino)pyridin-2-yl)-7-formyl-6-(pyridin-4-yl)-3,4-dihydro-1,8-naphthyridine-1(2H)-carboxamide]	–	–
4.6	56	COCCOc1cc(NC(=O)N2CCCc3cc(CN4CCNCC4=O)c(C=O)nc32)ncc1C#N [N-(5-cyano-4-(2-methoxyethoxyl)pyridin-2-yl)-7-formyl-6-((2-oxopiperazin-1-yl)methyl)-3,4-dihydro-1,8-naphthyridine-1(2H)-carboxamide trifluoroacetate]	–	–
–	–	COCCNc1cc(NC(=O)N2CCCc3cc(C4CCN(CC(F)F)CC4)c(C=O)nc32)ncc1C#N [Example 267, N-(5-cyano-4-((2-methoxyethyl)amino)pyridin-2-yl)-6-(1-(2,2-difluoroethyl)piperidin-4-yl)-7-formyl-3,4-dihydro-1,8-naphthyridine-1(2H)-carboxamide]	1.2	16.7
1.1	18.8	COC(C)CNc1cc(NC(=O)N2CCCc3cc(C(F)F)c(C=O)nc32)ncc1C#N (centres unmarked) [N-(5-cyano-4-((2-methoxypropyl)amino)pyridin-2-yl)-6-(difluoromethyl)-7-formyl-3,4-dihydro-1,8-naphthyridine-1(2H)-carboxamide]	–	–
1.6	10.3	CC(C)(O)CNc1cc(NC(=O)N2CCCc3cc(C(F)F)c(C=O)nc32)ncc1C#N [N-(5-cyano-4-((2-hydroxy-2-methylpropyl)amino)pyridin-2-yl)-6-(difluoromethyl)-7-formyl-3,4-dihydro-1,8-naphthyridine-1(2H)-carboxamide]	–	–
1.3	5.6	CC(C)Oc1cc(NC(=O)N2CCCc3cc(CN4CCOC4=O)c(C=O)nc32)ncc1C#N [N-(5-cyano-4-isopropoxypyridin-2-yl)-7-formyl-6-((2-oxooxazolidin-3-yl)methyl)-3,4-dihydro-1,8-naphthyridine-1(2H)-carboxamide]	–	–
0.2	3.6	CCNc1cc(NC(=O)N2CCCc3cc(CN(C)C(=O)CN(C)C)c(C=O)nc32)ncc1C#N [N-(5-cyano-4-(ethylamino)pyridin-2-yl)-6-((2-(dimethylamino)-N-methylacetamido)methyl)-7-formyl-3,4-dihydro-1,8-naphthyridine-1(2H)-carboxamide]	–	–
3.3	95.5	CC(C)Oc1cc(NC(=O)N2c3nc(C=O)c(Br)cc3CC[C@@H]2C)ncc1C#N [(S)-6-bromo-N-(5-cyano-4-isopropoxypyridin-2-yl)-7-formyl-2-methyl-3,4-dihydro-1,8-naphthyridine-1(2H)-carboxamide]	–	–
1	5.5	N#Cc1cnc(NC(=O)N2CCCc3cc(C(F)F)c(C=O)nc32)cc1NCCO [N-(5-cyano-4-((2-hydroxyethyl)amino)pyridin-2-yl)-6-(difluoromethyl)-7-formyl-3,4-dihydro-1,8-naphthyridine-1(2H)-carboxamide]	–	–
440	> 3000	COc1cc(NC(=O)N2CCCc3cc(CN4CCCC4(C)C)c(C=O)nc32)ncc1C#N [N-(5-cyano-4-methoxypyridin-2-yl)-6-((2,2-dimethylpyrrolidin-1-yl)methyl)-7-formyl-3,4-dihydro-1,8-naphthyridine-1(2H)-carboxamide]	–	–
–	–	N#Cc1cnc(NC(=O)N2CCCc3cc(CO)c(C=O)nc32)nc1O[C@H]1CCOC1 [Example 70, (S)-N-(5-cyano-4-((tetrahydrofuran-3-yl)oxy)pyrimidin-2-yl)-7-formyl-6-(hydroxymethyl)-3,4-dihydro-1,8-naphthyridine-1(2H)-carboxamide]	27	43
